# Assay results reported in paper PMC6694100, “The complex of ferric-enterobactin with its transporter from Pseudomonas aeruginosa suggests a two-site model” (Nature Communications, 2019).
# Values joined by “and” are separate entries in the source; they are usually repeats but may differ in a detail not shown here. Equal entries are not always repeated. “Also recorded” adds a separate entry of the source.
# Columns and labels:
# [1] = target: T1, PfeA R480A-Q482A double mutant (Pseudomonas aeruginosa, UniProt Q05098, Q507A/R505A); assay: coelution on S200 size-exclusion column, PfeA R480A-Q482A; type: binding
# T1 construct: His7 tag with TEV protease site (N, cleaved yes); made in house; host or cells: E. coli C43 (DE3)
# T1 sequence (Q05098 26-746 R505A/Q507A): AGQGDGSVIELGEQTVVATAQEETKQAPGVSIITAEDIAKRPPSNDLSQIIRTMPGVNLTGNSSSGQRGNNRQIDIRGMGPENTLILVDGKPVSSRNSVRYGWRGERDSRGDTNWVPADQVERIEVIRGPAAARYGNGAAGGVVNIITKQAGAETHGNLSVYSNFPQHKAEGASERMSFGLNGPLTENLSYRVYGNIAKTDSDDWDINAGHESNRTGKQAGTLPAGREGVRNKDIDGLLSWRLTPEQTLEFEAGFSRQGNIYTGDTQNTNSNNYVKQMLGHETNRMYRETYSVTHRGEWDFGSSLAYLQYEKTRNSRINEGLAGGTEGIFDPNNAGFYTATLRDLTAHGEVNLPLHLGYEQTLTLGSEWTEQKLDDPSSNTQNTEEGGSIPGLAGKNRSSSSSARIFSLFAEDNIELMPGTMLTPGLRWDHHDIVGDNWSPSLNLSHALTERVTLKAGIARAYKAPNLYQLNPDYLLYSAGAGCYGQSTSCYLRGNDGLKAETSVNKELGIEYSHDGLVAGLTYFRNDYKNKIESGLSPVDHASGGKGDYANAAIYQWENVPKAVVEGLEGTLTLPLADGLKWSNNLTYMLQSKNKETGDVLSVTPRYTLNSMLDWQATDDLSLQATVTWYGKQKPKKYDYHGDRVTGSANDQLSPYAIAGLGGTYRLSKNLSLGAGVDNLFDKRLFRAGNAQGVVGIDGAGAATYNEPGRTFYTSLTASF
# Method: (§1) Proteins were incubated with the Fe^3+-siderophore before being loaded on a S200 size-exclusion column.
# [2] = target: T2, PfeA G324V mutant (Pseudomonas aeruginosa, UniProt Q05098, G349V); assay: isothermal titration calorimetry, PfeA G324V; type: binding
# T2 construct: His7 tag with TEV protease site (N, cleaved yes); made in house; host or cells: E. coli C43 (DE3)
# T2 sequence (Q05098 26-746 G349V): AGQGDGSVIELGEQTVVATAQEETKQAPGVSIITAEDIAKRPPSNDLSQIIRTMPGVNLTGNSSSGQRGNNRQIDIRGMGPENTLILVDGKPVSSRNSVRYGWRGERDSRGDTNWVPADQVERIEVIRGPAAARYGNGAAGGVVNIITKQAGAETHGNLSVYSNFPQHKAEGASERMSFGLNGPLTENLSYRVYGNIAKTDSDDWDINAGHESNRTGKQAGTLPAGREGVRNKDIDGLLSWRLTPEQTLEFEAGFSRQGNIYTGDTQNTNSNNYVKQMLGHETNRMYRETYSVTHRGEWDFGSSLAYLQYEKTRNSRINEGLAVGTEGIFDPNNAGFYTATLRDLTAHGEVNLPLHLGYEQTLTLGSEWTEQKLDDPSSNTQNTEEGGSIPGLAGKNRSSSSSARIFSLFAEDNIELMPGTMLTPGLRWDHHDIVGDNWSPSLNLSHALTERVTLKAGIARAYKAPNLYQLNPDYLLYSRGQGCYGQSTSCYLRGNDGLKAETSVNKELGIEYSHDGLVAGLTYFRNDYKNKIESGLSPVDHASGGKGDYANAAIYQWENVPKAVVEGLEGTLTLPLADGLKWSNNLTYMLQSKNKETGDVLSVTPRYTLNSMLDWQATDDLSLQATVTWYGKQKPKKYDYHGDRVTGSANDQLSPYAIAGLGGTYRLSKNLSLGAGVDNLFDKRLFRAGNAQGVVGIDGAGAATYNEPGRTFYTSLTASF
# Method: (§2) The sites have different affinities for the ligand, one with high affinity and highly favourable enthalpy and the second with lower affinity and unfavourable enthalpy. Although the biphasic nature of the isotherm was reproducible, the numerical values varied. For K1, the binding constant was 20 to 100 nM; for K2 […]. […] The weaker binding at the […] site is consistent with the higher B-factor of the Fe^3+-enterobactin molecule observed in the complex crystal structures.
# (§3) Affinities of PfeA wild-type and mutants for Fe^3+-enterobactin were measured by isothermal titration calorimetry using a VP-ITC instrument (GE Healthcare) at 25 °C. Titrations were performed using 57 × 5 μl injections of Fe^3+-enterobactin (70–55 μM) into 10 μM protein. The heats of dilution measured from injection of the ligands into the buffer were subtracted, and titration curves were fitted using AFFINImeter software with a two-site binding model. Concentrations of Fe^3+-enterobactin solutions were verified with UV/vis spectrophotometry using a published molar extinction coefficient of ε495 = 5600 M^−1 cm^−1. […] Reverse titration has been also performed (PfeA into Fe^3+-enterobactin), but data suffer from high heats of dilution in the beginning of the blank titration of PfeA into the buffer giving estimates of K1 = 95 nM and K2 = 4.5 μM for the wild-type.
# [3] = test system: ∆pfeA(pMMBpfeAR480AQ482A) cells (double-mutant PfeA); assay: 55Fe-enterobactin binding and uptake assay, ∆pfeA(pMMBpfeAR480AQ482A); type: cell-based, Pseudomonas aeruginosa; settings: for 55Fe count, Comptage / 55Fe-enterobactin bound/taken up: replicates, Figure 6b-c, listed as 55Fe-enterobactin
# Method: (§4) Fig. 6 Effects of PfeA mutation in vivo. a Analysis of changes in the transcription of pfeA gene. PAO1 strain, its corresponding deletion mutant ∆pfeA and deletion mutants carrying the expression plasmid of PfeA wild-type (∆pfeA(pMMBpfeA) or the R480A-Q482A mutant (∆pfeA(pMMBpfeAR480AQ482A)) were grown in CAA medium supplemented with 10 µM enterobactin. The data were normalised relative to the reference gene uvrD, and are representative of three independent experiments performed in triplicate (n = 3). The results are given as a ratio between the values obtained for ∆pfeA, ∆pfeA(pMMBpfeA) and ∆pfeA(pMMBpfeAR480AQ482A) over those obtained for the PAO1 strain. b ^55Fe-enterobactin binding at the bacterial surface. Cells were grown as in panel a, and were incubated for 15 min with 200 µM CCCP before initiation of transport assays by the addition of 500 nM ^55Fe-enterobactin. After 30 min incubation, the radioactivity accumulated in the bacteria was counted. The results are expressed as pmol of ^55Fe-enterobactin bound per ml of cells at an OD600 of 1. The experiments have been repeated three times. c ^55Fe-enterobactin binding and uptake. Cells were grown as in panel a, and were incubated with or without 200 µM CCCP before initiation of transport assays by the addition of 500 nM ^55Fe-enterobactin. After 30 min incubations, the radioactivity accumulated in the bacteria was counted. The results are expressed as pmol of ^55Fe-enterobactin bound and transported per ml of cells at an OD600 of 1. The experiments have been repeated three times
# (§5) The complex was prepared at ^55Fe concentrations of 50 μM, with a siderophore:iron (mol:mol) ratio of 20:1. P. aeruginosa strains were first grown overnight at 30 °C in LB broth, and were then washed, resuspended and cultured overnight at 30 °C in iron-deficient CAA medium (casamino acid medium, composition: 5 g.l^−1 low-iron CAA (Difco), 1.46 g.l^−1 K2HPO4 3H2O, 0.25 g.l^−1 MgSO4 7H2O) and in the presence of 10 µM enterobactin to induce the expression of PfeA. CAA is a highly iron-restricted medium with iron concentrations of 20 nM[59]. Afterwards bacteria were washed with 50 mM Tris-HCl pH 8.0, and diluted to an OD600 of 1. Cells solutions were divided in two, one batch being treated with 200 μM CCCP. This compound collapses the proton-motive force across the bacterial cell membranes, inhibiting TonB-dependent iron uptake. Binding and transport assays were initiated by adding 500 nM ^55Fe-enterobactin to the bacterial solutions treated or not with CCCP. After 30 min of incubations, cells were centrifuged, and the radioactivity associated to the bacteria was monitored in the cell pellets. For the cells treated with CCCP, the radioactivity in the cell pellets corresponds to the binding of ^55Fe-enterobactin to P. aeruginosa cell surface, since no uptake occurs. In the absence of CCCP, the radioactivity associated to the cells corresponds to ^55Fe-enterobactin binding to the cell surface and the uptake into the bacteria.
# [4] = test system: ∆pfeA(pMMBpfeA) cells (native PfeA); assay: 55Fe-enterobactin binding and uptake assay, ∆pfeA(pMMBpfeA); type: cell-based, Pseudomonas aeruginosa; settings: for Comptage (dpm): replicate counts; for Comptage (dpm) / 55Fe incorporated, pmol/ml/DO600: Supplementary Fig 10, listed as 55Fe-enterobactin; for 55Fe incorporated, pmol/ml/DO600: replicates
# Method: as §4, §5
# [5] = test system: ∆pfeA cells with no plasmid; assay: 55Fe-enterobactin binding and uptake assay, ∆pfeA; type: cell-based, Pseudomonas aeruginosa; settings: for 55Fe count, Comptage / 55Fe-enterobactin bound/taken up: replicates, Figure 6b-c, listed as 55Fe-enterobactin
# Method: as §4, §5
# [6] = target: T3, PfeA Q482A mutant (Pseudomonas aeruginosa, UniProt Q05098, Q507A); assay: isothermal titration calorimetry, PfeA Q482A; type: binding
# T3 construct: His7 tag with TEV protease site (N, cleaved yes); made in house; host or cells: E. coli C43 (DE3)
# T3 sequence (Q05098 26-746 Q507A): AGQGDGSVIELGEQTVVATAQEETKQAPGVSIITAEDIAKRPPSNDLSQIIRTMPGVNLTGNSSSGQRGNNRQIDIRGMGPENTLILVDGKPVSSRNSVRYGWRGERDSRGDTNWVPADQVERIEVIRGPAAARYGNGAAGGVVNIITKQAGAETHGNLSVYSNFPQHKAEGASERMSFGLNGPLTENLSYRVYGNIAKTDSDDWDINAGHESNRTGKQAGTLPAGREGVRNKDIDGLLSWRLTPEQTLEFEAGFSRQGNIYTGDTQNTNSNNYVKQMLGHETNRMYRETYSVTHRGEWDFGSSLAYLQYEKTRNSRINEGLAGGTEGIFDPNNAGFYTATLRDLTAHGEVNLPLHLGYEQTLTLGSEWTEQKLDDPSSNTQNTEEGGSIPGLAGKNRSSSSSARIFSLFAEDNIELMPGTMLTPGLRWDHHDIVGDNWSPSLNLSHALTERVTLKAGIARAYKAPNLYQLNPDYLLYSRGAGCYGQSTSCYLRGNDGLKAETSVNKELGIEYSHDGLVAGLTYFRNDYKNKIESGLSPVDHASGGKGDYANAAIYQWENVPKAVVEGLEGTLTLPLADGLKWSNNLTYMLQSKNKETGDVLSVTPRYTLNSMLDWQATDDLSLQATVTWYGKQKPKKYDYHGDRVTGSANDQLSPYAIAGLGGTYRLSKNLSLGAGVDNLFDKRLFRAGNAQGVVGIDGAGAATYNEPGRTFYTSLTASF
# Method: as §2, §3
# [7] = target: T4, PfeA (Pseudomonas aeruginosa, UniProt Q05098); assay: coelution on S200 size-exclusion column, PfeA wild-type; type: binding
# T4 construct: His7 tag with TEV protease site (N, cleaved yes); made in house; host or cells: E. coli C43 (DE3)
# T4 sequence (Q05098 26-746): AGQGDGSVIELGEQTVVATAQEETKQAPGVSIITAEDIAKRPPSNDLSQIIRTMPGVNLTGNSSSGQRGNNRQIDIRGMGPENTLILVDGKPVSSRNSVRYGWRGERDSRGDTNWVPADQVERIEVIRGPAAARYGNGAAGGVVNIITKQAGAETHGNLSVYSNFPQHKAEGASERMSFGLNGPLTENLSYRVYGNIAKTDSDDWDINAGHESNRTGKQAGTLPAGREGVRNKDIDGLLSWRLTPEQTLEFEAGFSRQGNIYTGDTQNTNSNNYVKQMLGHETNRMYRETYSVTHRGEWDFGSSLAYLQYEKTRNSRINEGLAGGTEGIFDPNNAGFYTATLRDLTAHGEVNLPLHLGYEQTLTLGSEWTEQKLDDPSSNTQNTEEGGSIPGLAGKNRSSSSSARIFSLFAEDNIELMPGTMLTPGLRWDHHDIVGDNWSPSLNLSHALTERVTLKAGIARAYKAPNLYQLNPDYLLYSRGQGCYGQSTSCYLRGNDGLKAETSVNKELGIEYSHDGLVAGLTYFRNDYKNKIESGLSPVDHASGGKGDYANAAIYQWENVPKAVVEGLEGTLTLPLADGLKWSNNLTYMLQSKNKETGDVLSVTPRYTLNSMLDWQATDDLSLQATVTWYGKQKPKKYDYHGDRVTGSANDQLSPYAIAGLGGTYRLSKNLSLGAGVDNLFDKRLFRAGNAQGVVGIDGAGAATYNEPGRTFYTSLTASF
# Method: as §1
# Crystals of PfeA appeared at 20 °C after few days by mixing 2 μl of protein solution (10 mg.ml^−1) with 1 μl of reservoir solution containing 11% polyethylene glycol 8000, 0.05 M ADA pH 6.5 and 0.1 M magnesium acetate. Crystals were frozen with the same solution containing 25% ethylene glycol. Enterobactin structure complexes were obtained by soaking apo crystals for few hours with mother liquor containing 5 mM Fe^3+-enterobactin before cryoprotection. For the others complexes, crystals were cross-linked by diffusion of 25% glutaraldehyde prior the soaking. Co-crystallisation attempts have been performed by incubating the protein for 1 h at room temperature with the ligand before been loaded on a S200 16/60 column and concentrated for setting up the crystallisation plates. No crystals have been obtained by co-crystallisation. Crystallisation conditions of the mutants were the same as for the wild-type.
# [8] = cells not treated with CCCP, 500 nM ^55Fe-enterobactin, 30 min
# [9] = ∆pfeA (pMMBpfeAR480AQ482A) + CCCP
# [10] = ∆pfeA (pMMBpfeAR480AQ482A), no CCCP
structure (smiles),measurement,setting,value
O=C(N[C@H]1COC(=O)[C@@H](NC(=O)c2cccc([O-])c2[O-])COC(=O)[C@@H](NC(=O)c2cccc([O-])c2[O-])COC1=O)c1cccc([O-])c1[O-].[Fe+3] [Fe^3+-enterobactin],coelution with protein on size-exclusion column,[1],does not coelute
same,binding by ITC,[2],no binding was detected; also recorded: did not show any detectable binding
same,^55Fe-enterobactin binding and uptake,[3]; [8],inactive
same,"55Fe count, Comptage",[3]; [9],1611 dpm and 1344 dpm and 1594 dpm
same,55Fe-enterobactin bound/taken up,[3]; [9],20.669 pmol/ml/DO600 and 17.2434 pmol/ml/DO600 and 20.4509 pmol/ml/DO600
same,"55Fe count, Comptage",[3]; [10],2941 dpm and 2752 dpm and 2956 dpm
same,55Fe-enterobactin bound/taken up,[3]; [10],37.7328 pmol/ml/DO600 and 35.3079 pmol/ml/DO600 and 37.9252 pmol/ml/DO600
same,^55Fe-siderophore binding at the bacterial surface,"[4]; CCCP treated cells (200 µM), 500 nM ^55Fe-enterobactin, 30 min, compared with wild-type PAO1",much higher levels of binding
same,^55Fe-enterobactin binding and uptake,[4]; [8],less efficient
same,Comptage (dpm),[4]; ∆pfeA (pMMBpfeA) (no CCCP),9474 dpm and 9114 dpm and 9574 dpm
same,"55Fe incorporated, pmol/ml/DO600",[4]; ∆pfeA (pMMBpfeA) (no CCCP),121.551 pmol/ml/DO600 and 116.932 pmol/ml/DO600 and 122.834 pmol/ml/DO600
same,Comptage (dpm),[4]; ∆pfeA (pMMBpfeA) + CCCP,6090 dpm and 6603 dpm and 5856 dpm
same,"55Fe incorporated, pmol/ml/DO600",[4]; ∆pfeA (pMMBpfeA) + CCCP,78.1342 pmol/ml/DO600 and 84.716 pmol/ml/DO600 and 75.132 pmol/ml/DO600
same,^55Fe-siderophore binding at the bacterial surface,"[5]; CCCP treated cells (200 µM), 500 nM ^55Fe-enterobactin, 30 min",same low level of binding as wild-type PAO1
same,"55Fe count, Comptage",[5]; ∆pfeA + CCCP,1560 dpm and 1268 dpm and 1340 dpm
same,55Fe-enterobactin bound/taken up,[5]; ∆pfeA + CCCP,20.0147 pmol/ml/DO600 and 16.2683 pmol/ml/DO600 and 17.1921 pmol/ml/DO600
same,"55Fe count, Comptage","[5]; ∆pfeA, no CCCP",3228 dpm and 4151 dpm and 2977 dpm
same,55Fe-enterobactin bound/taken up,"[5]; ∆pfeA, no CCCP",41.415 pmol/ml/DO600 and 53.257 pmol/ml/DO600 and 38.1947 pmol/ml/DO600
same,binding by ITC,[6],"biphasic isotherms, but with much reduced heat output and smaller K1 values; also recorded: weakened (but detectable) binding"
same,coelution with protein on size-exclusion column,[7],coelute with PfeA
